Data reported in patent US7531312B2, “Simplified biological evaluation method of natural and artificial chemicals by using DNA injury index and apparatus therefor” (TAS Project Co., Ltd., priority 2000, dated 2009).
“Also recorded” adds a separate entry of the source.

Legend:
[1] = test system: 2′-deoxyguanosine (dG); assay: 8OHdG produced from added dG, standing at room temperature or UV irradiation (Examples 1-7); conditions: for evaluation in words: oxidation induction or antioxidant ability toward dG: conclusions of Examples 2-7; for 8OHdG concentration, UV irradiation 60 minutes: ultrapure water 0.392; for 8OHdG concentration, UV irradiation 90 minutes: ultrapure water 0.901; for 8OHdG concentration, UV irradiation 120 minutes: ultrapure water 1.183;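 for all read-outs here: Cell-free test: dG in test solution, held at room temperature or exposed to 254 nm UV, then 8OHdG quantified by HPLC with electrochemical detection, compared against dG in ultrapure water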
Method: Separately, the amount of 8OHdG after an ultrapure water solution of dG is left to stand under the same conditions as above for a predetermined time is measured (this value is defined as B). If A is greater than B, the test substance is evaluated to have oxidation induction ability and conversely if A is smaller than B, the test substance is evaluated to have antioxidant ability. In either case, it is judged that the greater the difference is, the greater degree of oxidation induction ability or antioxidant capability the test substance has.
Then, 20 μl of 200 μg/ml dG (dissolved in ultrapure water) was added to each well and one of the plates was left to stand as it was at room temperature for 90 minutes and the other plate was irradiated with UV light (254 nm, 860 μW/cm^2) for 90 minutes in a UV light irradiation box. […] Subsequently, nucleosides in the both were quantified by use of the UV light absorption analyzer connected to the HPLC and the electrochemical detector.
Solutions of predetermined concentrations of vitamin C (VC), vitamin E (VE), catechin (Cate) and tannic acid (Tan) were prepared and 180 μl portions were injected into each well of two 99-well plastic plates. Then, 20 μl of 200 μg/ml dG (dissolved in ultrapure water) was added to each well and one of the plates was left to stand as it was at room temperature for 90 minutes and the other plate was irradiated with UV light (254 nm, 860 μW/cm^2) for 90 minutes in a UV light irradiation box.
Then, 20 μl of 200 μg/ml dG (dissolved in ultrapure water) was added to each well and one of the plates was left to stand as it was at room temperature for 90 minutes and another plate was left to stand similarly at room temperature for 24 hours. The remaining three plates were irradiated with UV light (254 nm, 860 μW/cm^2) for 60 minutes, 90 minutes and 120 minutes, respectively, in a UV light irradiation box.
Solutions of predetermined concentrations of glucose (Glu), raffinose (Raffi) and sucrose (Suc) were prepared and 180 μl portions thereof were injected into each well of four 99-well plastic plates. Then, 20 μl of 200 μg/ml dG (dissolved in ultrapure water) was added to each well and one of the plates was left to stand as it was at room temperature for 90 minutes. The remaining three plates were irradiated with UV light (254 nm, 860 μW/cm^2) for 60 minutes, 90 minutes and 120 minutes, respectively, in a UV light irradiation box.
Then, 20 μl of 200 μg/ml dG (dissolved in ultrapure water) was added to each well and one of the plates was left to stand as it was at room temperature for 90 minutes and the other plate was irradiated with UV light (254 nm, 860 μW/cm^2) for 90 minutes in a UV light irradiation box.
Solutions of various concentrations of uric acid (dissolving fluid: distilled water+0.025% FBS) were prepared and 180 μl portions thereof were injected into each well of two 99-well plastic plates. Then, 20 μl of 200 μg/ml dG (dissolved in ultrapure water) was added to each well and one of the plates was left to stand as it was at room temperature for 90 minutes and the other plate was irradiated with UV light (254 nm, 860 μW/cm^2) for 90 minutes in a UV light irradiation box.

[2] = test system: 2′-deoxyguanosine (dG); assay: 8OHdG produced from dG with test substance and coexisting bisphenol A, standing or UV (Example 9); format: biochemical; conditions: for effect on 8OHdG with BPA and UV light irradiation: Example 9
Method: 170 μl portions of ultrapure water and predetermined concentrations of vitamin C (VC), vitamin E (VE), and glucose (Glu) as test substance were added to each well of two […] plastic plates and, as additional solution, 20 μl of ultrapure water or predetermined concentration of bisphenol A (BPA) were injected into each well.

[3] = 1 μg/ml, Table 5, ultrapure water 0.219
[4] = 1 μg/ml, Table 5, ultrapure water 0.422
[5] = 10 μg/ml, Table 5, ultrapure water 0.219
[6] = 10 μg/ml, Table 5, ultrapure water 0.422
[7] = 100 μg/ml, Table 5, ultrapure water 0.219
[8] = 100 μg/ml, Table 5, ultrapure water 0.422
[9] = 1 mg/ml, Table 5, ultrapure water 0.219
[10] = 1 mg/ml, Table 5, ultrapure water 0.422
[11] = 1 μg/ml, Table 2, distilled water 0.15
[12] = 10 μg/ml, Table 2, distilled water 0.15
[13] = test substance 0.00001%, additional solution BPA (50 ppm), BPA alone 11.58
[14] = test substance 0.0001%, additional solution BPA (50 ppm), BPA alone 11.58
[15] = test substance 0.001%, additional solution BPA (50 ppm), BPA alone 0.22
[16] = test substance 0.001%, additional solution BPA (50 ppm), BPA alone 11.58
[17] = test substance 0.001%, additional solution ultrapure water

## N=C(N)NCCC[C@H](N)C(=O)O [Arg, 1-arginine]
[1]; [3]
  8OHdG concentration, 90 Minutes' standing: 0.186 ng/mL
[1]; [4]
  8OHdG concentration, 90 Minutes' UV irradiation: 0.323 ng/mL
[1]; [5]
  8OHdG concentration, 90 Minutes' standing: 0.153 ng/mL
[1]; [6]
  8OHdG concentration, 90 Minutes' UV irradiation: 0.253 ng/mL
[1]; [7]
  8OHdG concentration, 90 Minutes' standing: 0.150 ng/mL
[1]; [8]
  8OHdG concentration, 90 Minutes' UV irradiation: 0.305 ng/mL
[1]; [9]
  8OHdG concentration, 90 Minutes' standing: 0.173 ng/mL
[1]; [10]
  8OHdG concentration, 90 Minutes' UV irradiation: 0.299 ng/mL
[1]
  evaluation in words: oxidation induction or antioxidant ability toward dG: exhibited antioxidant ability

## NC(=O)NCCC[C@H](N)C(=O)O [Cit, 1-citrulline]
[1]; [3]
  8OHdG concentration, 90 Minutes' standing: 0.184 ng/mL
[1]; [4]
  8OHdG concentration, 90 Minutes' UV irradiation: 0.332 ng/mL
[1]; [5]
  8OHdG concentration, 90 Minutes' standing: 0.179 ng/mL
[1]; [6]
  8OHdG concentration, 90 Minutes' UV irradiation: 0.305 ng/mL
[1]; [7]
  8OHdG concentration, 90 Minutes' standing: 0.120 ng/mL
[1]; [8]
  8OHdG concentration, 90 Minutes' UV irradiation: 0.225 ng/mL
[1]; [9]
  8OHdG concentration, 90 Minutes' standing: 0.156 ng/mL
[1]; [10]
  8OHdG concentration, 90 Minutes' UV irradiation: 0.125 ng/mL
[1]
  evaluation in words: oxidation induction or antioxidant ability toward dG: exhibited antioxidant ability

## Oc1ccc(/C=C/c2cc(O)cc(O)c2)cc1 [RVT, Resveratol]
[1]; 0.0005 ppm, Table 1, ultrapure water 0.529
  8OHdG concentration, 90 Minutes' UV irradiation: 1.026 ng/mL
[1]; 0.005 ppm, Table 1, ultrapure water 0.529
  8OHdG concentration, 90 Minutes' UV irradiation: 0.690 ng/mL
[1]; 0.05 ppm, Table 1, ultrapure water 0.529
  8OHdG concentration, 90 Minutes' UV irradiation: 0.571 ng/mL
[1]; 0.5 ppm, Table 1, ultrapure water 0.529
  8OHdG concentration, 90 Minutes' UV irradiation: 1.378 ng/mL
[1]; 5 ppm, Table 1, ultrapure water 0.529
  8OHdG concentration, 90 Minutes' UV irradiation: 5.582 ng/mL
[1]; Example 1, 90 minutes UV
  concentration at which oxidation injury activity due to UV light is elevated (harmfulness increased): ≥ 0.5 ppm

## NCCCNCCCCNCCCN [Spe, spermine]
[1]; [3]
  8OHdG concentration, 90 Minutes' standing: 0.140 ng/mL
[1]; [4]
  8OHdG concentration, 90 Minutes' UV irradiation: 0.297 ng/mL
[1]; [5]
  8OHdG concentration, 90 Minutes' standing: 0.150 ng/mL
[1]; [6]
  8OHdG concentration, 90 Minutes' UV irradiation: 0.328 ng/mL
[1]; [7]
  8OHdG concentration, 90 Minutes' standing: 0.154 ng/mL
[1]; [8]
  8OHdG concentration, 90 Minutes' UV irradiation: 0.351 ng/mL
[1]; [9]
  8OHdG concentration, 90 Minutes' standing: 0.179 ng/mL
[1]; [10]
  8OHdG concentration, 90 Minutes' UV irradiation: 0.112 ng/mL
[1]
  evaluation in words: oxidation induction or antioxidant ability toward dG: exhibited antioxidant ability

## OC[C@H]1O[C@@](CO)(O[C@H]2O[C@H](CO)[C@@H](O)[C@H](O)[C@H]2O)[C@@H](O)[C@@H]1O [Suc, sucrose]
[1]; 0.1 μg/ml, Table 4, ultrapure water 0.195
  8OHdG concentration, 90 Minutes' standing: 0.235 ng/mL
[1]; 0.1 μg/ml, Table 4
  8OHdG concentration, UV irradiation 60 minutes: 0.299 ng/mL
  8OHdG concentration, UV irradiation 90 minutes: 0.756 ng/mL
  8OHdG concentration, UV irradiation 120 minutes: 1.073 ng/mL
[1]; 1 μg/ml, Table 4, ultrapure water 0.195
  8OHdG concentration, 90 Minutes' standing: 0.185 ng/mL
[1]; 1 μg/ml, Table 4
  8OHdG concentration, UV irradiation 60 minutes: 0.358 ng/mL
  8OHdG concentration, UV irradiation 90 minutes: 0.708 ng/mL
  8OHdG concentration, UV irradiation 120 minutes: 1.143 ng/mL
[1]; 10 μg/ml, Table 4, ultrapure water 0.195
  8OHdG concentration, 90 Minutes' standing: 0.235 ng/mL
[1]; 10 μg/ml, Table 4
  8OHdG concentration, UV irradiation 60 minutes: 0.333 ng/mL
  8OHdG concentration, UV irradiation 90 minutes: 0.690 ng/mL
  8OHdG concentration, UV irradiation 120 minutes: 1.279 ng/mL
[1]; 100 μg/ml, Table 4, ultrapure water 0.195
  8OHdG concentration, 90 Minutes' standing: 0.280 ng/mL
[1]; 100 μg/ml, Table 4
  8OHdG concentration, UV irradiation 90 minutes: 0.379 ng/mL
  8OHdG concentration, UV irradiation 120 minutes: 0.648 ng/mL
[1]; 1 mg/ml, Table 4, ultrapure water 0.195
  8OHdG concentration, 90 Minutes' standing: 0.300 ng/mL
[1]; 1 mg/ml, Table 4
  8OHdG concentration, UV irradiation 60 minutes: 0.127 ng/mL
  8OHdG concentration, UV irradiation 90 minutes: 0.309 ng/mL
  8OHdG concentration, UV irradiation 120 minutes: 0.364 ng/mL
[1]
  evaluation in words: oxidation induction or antioxidant ability toward dG: Glu>Raffi≈Suc; also recorded: antioxidant ability as potent as that of Raffi

## O=C(OC[C@H]1O[C@@H](OC(=O)c2cc(O)c(O)c(OC(=O)c3cc(O)c(O)c(O)c3)c2)[C@H](OC(=O)c2cc(O)c(O)c(OC(=O)c3cc(O)c(O)c(O)c3)c2)[C@@H](OC(=O)c2cc(O)c(O)c(OC(=O)c3cc(O)c(O)c(O)c3)c2)[C@@H]1OC(=O)c1cc(O)c(O)c(OC(=O)c2cc(O)c(O)c(O)c2)c1)c1cc(O)c(O)c(OC(=O)c2cc(O)c(O)c(O)c2)c1 [Tan, tannic acid]
[1]; [11]
  8OHdG concentration, 90 Minutes' standing: 0.84 ng/mL
[1]; 1 μg/ml, Table 2, distilled water 1.23
  8OHdG concentration, 90 Minutes' UV irradiation: 1.04 ng/mL
[1]; [12]
  8OHdG concentration, 90 Minutes' standing: 5.64 ng/mL
[1]; 10 μg/ml, Table 2, distilled water 1.23
  8OHdG concentration, 90 Minutes' UV irradiation: 19.29 ng/mL
[1]; 100 μg/ml, Table 2, distilled water 0.15
  8OHdG concentration, 90 Minutes' standing: 54.00 ng/mL
[1]; 100 μg/ml, Table 2, distilled water 1.23
  8OHdG concentration, 90 Minutes' UV irradiation: 97.07 ng/mL
[1]
  evaluation in words: oxidation induction or antioxidant ability toward dG: high gene injury inducing effect

## O=C1O[C@H]([C@@H](O)CO)C(O)=C1O [VC, ascorbic acid]
[2]
  effect on 8OHdG with BPA and UV light irradiation: does not cancel the induction of 8OHdG by BPA
[2]; [13]
  8OHdG concentration, 90 Minutes' UV irradiation: 14.96 ng/mL
[2]; [14]
  8OHdG concentration, 90 Minutes' UV irradiation: 15.95 ng/mL
[2]; [15]
  8OHdG concentration, 90 Minutes' standing: 1.51 ng/mL
[2]; [16]
  8OHdG concentration, 90 Minutes' UV irradiation: 12.53 ng/mL
[2]; [17]
  8OHdG concentration, 90 Minutes' UV irradiation: 5.75 ng/mL
  8OHdG concentration, 90 Minutes' standing: 16.3 ng/mL
[1]; 0.00001%, Table 2, distilled water 0.15
  8OHdG concentration, 90 Minutes' standing: 0.44 ng/mL
[1]; 0.00001%, Table 2, distilled water 1.23
  8OHdG concentration, 90 Minutes' UV irradiation: 0.46 ng/mL
[1]; 0.0001%, Table 2, distilled water 0.15
  8OHdG concentration, 90 Minutes' standing: 0.63 ng/mL
[1]; 0.0001%, Table 2, distilled water 1.23
  8OHdG concentration, 90 Minutes' UV irradiation: 1.51 ng/mL
[1]; 0.001%, Table 2, distilled water 0.15
  8OHdG concentration, 90 Minutes' standing: 6.04 ng/mL
[1]; 0.001%, Table 2, distilled water 1.23
  8OHdG concentration, 90 Minutes' UV irradiation: 38.36 ng/mL
[1]
  evaluation in words: oxidation induction or antioxidant ability toward dG: very strong oxidation inducing substance
[1]; stored for a long period added to a dG solution in contact with air
  8OHdG induction on storage: a large amount of 8OHdG was induced

## Cc1c(C)c2c(c(C)c1O)CC[C@@](C)(CCC[C@H](C)CCC[C@H](C)CCCC(C)C)O2 [VE, vitamin E]
[2]
  effect on 8OHdG with BPA and UV light irradiation: significantly inhibit the increase in 8OHdG
[2]; [13]
  8OHdG concentration, 90 Minutes' UV irradiation: 15.43 ng/mL
[2]; [14]
  8OHdG concentration, 90 Minutes' UV irradiation: 8.27 ng/mL
[2]; [15]
  8OHdG concentration, 90 Minutes' standing: 0.29 ng/mL
[2]; [16]
  8OHdG concentration, 90 Minutes' UV irradiation: 3.79 ng/mL
[2]; [17]
  8OHdG concentration, 90 Minutes' UV irradiation: 0.28 ng/mL
  8OHdG concentration, 90 Minutes' standing: 0.18 ng/mL
[1]; 0.0005%, Table 2, distilled water 0.15
  8OHdG concentration, 90 Minutes' standing: 0.49 ng/mL
[1]; 0.0005%, Table 2, distilled water 1.23
  8OHdG concentration, 90 Minutes' UV irradiation: 0.30 ng/mL
[1]; 0.005%, Table 2, distilled water 0.15
  8OHdG concentration, 90 Minutes' standing: 0.45 ng/mL
[1]; 0.005%, Table 2, distilled water 1.23
  8OHdG concentration, 90 Minutes' UV irradiation: 0.18 ng/mL
[1]; 0.05%, Table 2, distilled water 0.15
  8OHdG concentration, 90 Minutes' standing: 0.44 ng/mL
[1]; 0.05%, Table 2, distilled water 1.23
  8OHdG concentration, 90 Minutes' UV irradiation: 0.42 ng/mL
[1]
  evaluation in words: oxidation induction or antioxidant ability toward dG: very stable antioxidant

## O=c1[nH]c(=O)c2[nH]c(=O)[nH]c2[nH]1 [uric acid]
[1]; 0.01 μg/ml, Table 6, dissolving fluid 0.218
  8OHdG concentration, 90 Minutes' standing: 0.176 ng/mL
[1]; 0.01 μg/ml, Table 6, dissolving fluid 1.007
  8OHdG concentration, 90 Minutes' UV irradiation: 1.064 ng/mL
[1]; 0.1 μg/ml, Table 6, dissolving fluid 0.218
  8OHdG concentration, 90 Minutes' standing: 0.193 ng/mL
[1]; 0.1 μg/ml, Table 6, dissolving fluid 1.007
  8OHdG concentration, 90 Minutes' UV irradiation: 0.966 ng/mL
[1]; 1 μg/ml, Table 6, dissolving fluid 0.218
  8OHdG concentration, 90 Minutes' standing: 0.175 ng/mL
[1]; 1 μg/ml, Table 6, dissolving fluid 1.007
  8OHdG concentration, 90 Minutes' UV irradiation: 2.369 ng/mL
[1]; 10 μg/ml in distilled water+0.025% FBS, Table 6, dissolving fluid 0.218
  8OHdG concentration, 90 Minutes' standing: 0.147 ng/mL
[1]; 10 μg/ml in distilled water+0.025% FBS, Table 6, dissolving fluid 1.007
  8OHdG concentration, 90 Minutes' UV irradiation: 15.619 ng/mL
[1]
  evaluation in words: oxidation induction or antioxidant ability toward dG: high degree of DNA oxidation injury

## catechin
[1]; [11]
  8OHdG concentration, 90 Minutes' standing: 9.07 ng/mL
[1]; [12]
  8OHdG concentration, 90 Minutes' standing: 133.71 ng/mL
[1]
  evaluation in words: oxidation induction or antioxidant ability toward dG: induces 8OHdG very strongly
